These are literature values, as cited in patent US7723019B2, “Organic cation transporter preferentially expressed in hematopoietic cells and leukemias and uses thereof” (University of Kentucky Research Foundation, priority 2003, dated 2010).

Series [1] deals with T1, OCT2 (SLC22A2) (Homo sapiens, UniProt O15244).
T1 sequence (O15244 1-555): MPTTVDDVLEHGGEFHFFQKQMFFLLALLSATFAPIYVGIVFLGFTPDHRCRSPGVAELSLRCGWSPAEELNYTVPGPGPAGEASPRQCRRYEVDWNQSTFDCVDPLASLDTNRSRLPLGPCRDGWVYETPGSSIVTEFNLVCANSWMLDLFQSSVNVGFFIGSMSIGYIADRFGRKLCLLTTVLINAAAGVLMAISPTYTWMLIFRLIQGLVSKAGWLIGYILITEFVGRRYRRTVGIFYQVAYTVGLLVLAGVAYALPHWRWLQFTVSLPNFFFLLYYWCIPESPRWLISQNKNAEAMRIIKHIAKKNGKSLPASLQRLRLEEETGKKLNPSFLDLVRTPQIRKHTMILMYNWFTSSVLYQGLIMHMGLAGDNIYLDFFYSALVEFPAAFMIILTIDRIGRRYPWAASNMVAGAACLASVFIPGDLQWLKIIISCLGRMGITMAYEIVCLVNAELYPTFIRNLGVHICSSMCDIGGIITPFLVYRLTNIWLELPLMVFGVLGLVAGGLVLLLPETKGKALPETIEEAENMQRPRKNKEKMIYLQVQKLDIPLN

In series [2] the test system is OCT3 (SLC22A3).
Series [3] has as its target T2, OCT1 (SLC22A1) (Homo sapiens, UniProt O15245).
T2 construct: host or cells: HeLa; Xenopus
T2 sequence (O15245 1-554): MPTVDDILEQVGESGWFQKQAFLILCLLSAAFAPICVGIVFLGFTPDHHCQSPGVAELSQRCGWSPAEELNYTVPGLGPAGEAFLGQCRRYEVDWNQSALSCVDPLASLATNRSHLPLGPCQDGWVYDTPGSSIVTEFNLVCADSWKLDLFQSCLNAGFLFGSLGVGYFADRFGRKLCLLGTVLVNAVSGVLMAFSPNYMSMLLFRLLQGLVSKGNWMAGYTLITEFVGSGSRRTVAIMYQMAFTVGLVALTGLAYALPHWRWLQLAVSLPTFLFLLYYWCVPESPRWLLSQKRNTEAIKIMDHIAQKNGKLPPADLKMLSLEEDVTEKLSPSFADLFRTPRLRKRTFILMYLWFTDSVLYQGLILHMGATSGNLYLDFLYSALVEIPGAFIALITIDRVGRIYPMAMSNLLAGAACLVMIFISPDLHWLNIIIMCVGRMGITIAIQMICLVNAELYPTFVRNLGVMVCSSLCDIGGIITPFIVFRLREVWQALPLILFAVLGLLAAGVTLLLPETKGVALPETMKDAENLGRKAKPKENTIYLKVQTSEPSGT
To be noted: OCT1, cell type Xenopus.

For series [4], the target named is T3, OCTN2 (SLC22A5) (Homo sapiens, UniProt O76082).
T3 sequence (O76082 1-557): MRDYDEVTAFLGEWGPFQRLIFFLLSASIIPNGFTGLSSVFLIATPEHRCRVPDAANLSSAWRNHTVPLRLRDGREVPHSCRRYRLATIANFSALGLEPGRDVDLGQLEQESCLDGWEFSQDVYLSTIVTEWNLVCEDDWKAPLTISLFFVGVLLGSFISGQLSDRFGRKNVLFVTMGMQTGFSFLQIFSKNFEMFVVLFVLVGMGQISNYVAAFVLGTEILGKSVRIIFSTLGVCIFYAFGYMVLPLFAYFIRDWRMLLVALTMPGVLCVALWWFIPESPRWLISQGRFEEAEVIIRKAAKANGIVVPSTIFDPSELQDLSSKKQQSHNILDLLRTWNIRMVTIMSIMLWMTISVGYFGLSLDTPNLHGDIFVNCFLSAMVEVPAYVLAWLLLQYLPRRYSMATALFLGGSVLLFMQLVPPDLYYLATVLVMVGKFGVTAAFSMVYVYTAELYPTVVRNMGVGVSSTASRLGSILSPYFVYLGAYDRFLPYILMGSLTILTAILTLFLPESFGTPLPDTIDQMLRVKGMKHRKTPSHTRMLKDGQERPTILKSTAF

The target of series [5] is T4, OCTN1 (SLC22A4) (Homo sapiens, UniProt Q9H015).
T4 sequence (Q9H015 1-551): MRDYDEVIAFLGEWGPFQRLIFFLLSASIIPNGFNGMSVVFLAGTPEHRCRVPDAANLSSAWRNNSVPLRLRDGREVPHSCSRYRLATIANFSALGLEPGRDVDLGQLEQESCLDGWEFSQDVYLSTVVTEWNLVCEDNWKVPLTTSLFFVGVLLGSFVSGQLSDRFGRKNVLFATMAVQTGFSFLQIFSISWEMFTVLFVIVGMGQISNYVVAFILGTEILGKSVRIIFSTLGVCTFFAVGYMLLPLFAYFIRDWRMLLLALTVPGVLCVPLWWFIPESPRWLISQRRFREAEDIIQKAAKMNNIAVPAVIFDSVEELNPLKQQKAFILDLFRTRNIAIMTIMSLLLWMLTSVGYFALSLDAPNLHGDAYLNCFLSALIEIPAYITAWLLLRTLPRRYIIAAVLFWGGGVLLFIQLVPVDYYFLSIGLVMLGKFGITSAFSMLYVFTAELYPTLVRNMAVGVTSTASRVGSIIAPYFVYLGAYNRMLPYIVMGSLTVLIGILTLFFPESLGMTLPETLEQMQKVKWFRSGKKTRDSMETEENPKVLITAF
To be noted: OCTN1, cell type Fibroblasts.

The test system of series [6] is RFC1-transfected MTX^R ZR75 cell line. To be noted: RFC1 transfection into transport-deficient MTX^R ZR75 cells, relative to control cell clones.
The test system of series [7] is reduced folate carrier (RFC). To be noted: read-out: Km for MTX, approximately.

Structures are written as SMILES. “And” between values parts separate entries of the source, which are not always exact repeats. Identical values can stand only once. Like-named read-outs stand apart in the source and are kept apart here.

For the molecule `C[n+]1ccc(-c2ccccc2)cc1` [MPP, 1-methyl-4-phenylpyridinium], the KT in series [1] (OCT2, cell type HEK293) is 16 µM; in series [2] (OCT3, cell type HRPE), 47 µM; in series [3], 14.6 µM.

For the molecule `CC(=O)O[C@H](CC(=O)[O-])C[N+](C)(C)C` [Acetyl-L-carnitine], the KT in series [4] (OCTN2, cell type HEK293) is 8.5 µM.

Turning to `NCCc1c[nH]cn1` [Histamine], the KT in series [1] (OCT2, cell type Xenopus) was 1300 µM.

Turning to `C[N+](C)(C)C[C@@H](O)CC(=O)[O-]` [D-Carnitine], the KT in series [4] (OCTN2, cell type HEK293) was 10.9 µM; in series [4] (OCTN2, cell type Xenopus) it was 98 µM.

Regarding `C[N+](C)(C)C[C@H](O)CC(=O)[O-]` [L-Carnitine], the KT is 6.6 µM in series [5]; 4.34 µM and 4.3 µM in series [4] (OCTN2, cell type HEK293); 3.5 µM in series [4] (OCTN2, cell type JAR); 4.8 µM in series [4] (OCTN2, cell type Xenopus).

Regarding `CC12CC3CC(C)(C1)CC(N)(C3)C2` [Memantine], the KT in series [1] (OCT2, cell type Xenopus) is 34 µM.

As to `NC[C@H](O)c1ccc(O)c(O)c1` [Norepinephrine], the KT in series [1] (OCT2, cell type Xenopus) was 1900 µM.

Take `CN(Cc1cnc2nc(N)nc(N)c2n1)c1ccc(C(=O)N[C@@H](CCC(=O)O)C(=O)O)cc1` [MTX, Methotrexate]: in series [6], the “increase in 6-hour MTX uptake” value was 20 fold and the “increase in sensitivity to MTX” value is on record as 250 fold. The Km – broadly, the substrate concentration at which the rate is half of its maximum – in series [7] was 0.8 to 26 µM.

Turning to `CC[N+](CC)(CC)CC` [TEA, tetraethylammonium], the KT in series [2] (OCT3, cell type HeLa) is 2500 µM.

With `NC12CC3CC(CC(C3)C1)C2` [Amantadine], the KT in series [1] (OCT2, cell type Xenopus) was 27 µM.

As for `NCCc1c[nH]c2ccc(O)cc12` [Serotonin], the KT in series [1] (OCT2, cell type Xenopus) is 80 µM.

With `NCCc1ccc(O)c(O)c1` [Dopamine], the KT in series [1] (OCT2, cell type HEK293) was 330 µM; in series [1] (OCT2, cell type Xenopus), 390 µM.
